Assay results from US5665390A, “Stabilized tablet formulation” (SmithKline Beecham Corporation, priority 1993, dated 1997).

Experiments:
[1] = stability of compound in blends/granulations versus compressed tablets; degradation products analyzed by LC/MS; assay type: physicochemical; conditions: compressed into direct compression or wet granulation tablets with excipients
From the text: Although stable when blended or granulated with one or more commonly used pharmaceutical excipients such as, for example, lactose, tribasic calcium phosphate, silicon dioxide, corn starch, sodium starch glycolate, hydroxypropyl cellulose, hydroxypropyl methylcellulose, gelatin, magnesium stearate, microcrystalline cellulose, mannitol, and sorbitol, substituted 3,5-diene steroidal compounds were unexpectedly found to undergo a significant increase in the rate of formation of degradation products when compressed into tablets with such pharmaceutical excipients. This increase in degradation products occurs whether the substituted 3,5-diene steroidal compound and said excipients are formulated in direct compression tablets or in wet granulation tablets.

steroid 5-α-reductase = conditions: cited from earlier work
[2] = Accelerated Stability Screening Method (tablets stored at 85° C., degradation by HPLC); conditions: additive to tablets of substituted 3,5-diene steroidal compounds
Procedure: The stability of N-t-butyl-androst-3,5-diene-17β-carboxamide-3-carboxylic acid (compound A) in various tablet formulations was determined by HPLC analysis.
In Experiment 1 Compound A, microcrystalline cellulose, lactose, corn starch and sodium starch glycolate shown in Table I below, were mixed in the proportions shown. […] The tablets thus prepared were placed in stability chamber at 85° and the results of the stability test were recorded in Table 2 below.
The tablets thus prepared were placed in stability chamber at 85° C. and the results of the stability test were recorded in Table 3 below.
The tablets thus prepared were placed in stability chamber at 85° C. and the results of the stability test were recorded in Table 5 below.
In Experiment 4 Standard Granulation and BHT (for Batch 8) shown in Table 6 below, or stearic acid and BHT (for Batch 9) shown in Table 7 below, were mixed and granulated in the proportions shown and compressed into tablets of about 350 mg total tablet weight. The tablets thus prepared were placed in stability chamber at 85° C. and the results of the stability test were recorded in Tables 6 and 7 below.
The tablets thus prepared were placed in stability chamber at 85° C. and the results of the stability test were recorded in Table 8 below. […]

Compound | formation of degradation products when compressed into tablets [1] | inhibition of steroid 5-α-reductase (steroid 5-α-reductase) | stabilizing effect on tablets (percentage of degradation products) [2]
CC(C)(C)NC(=O)[C@H]1CC[C@H]2[C@@H]3CC=C4C=C(C(=O)O)CC[C@]4(C)[C@H]3CC[C@]12C [Compound A, N-t-butyl-androst-3,5-diene-17β-carboxamide-3-carboxylic acid] | oxidative additions (the 7 keto oxidation product and others) which only occurred when blends or granulations of Compound A were compressed into tablets | useful in inhibiting steroid 5αreductase | 
CCCCCCCCCCCCCCCCCC(=O)O [magnesium stearate] |  |  | do not exhibit such activity
